For one assay, the system named is Rice. Kind of assay: Rice box experiment. It is filed as in vivo, rice cultivar Nipponbare. The note with it: low phosphate 0.025 mM, 10 μM, 13 days after germination, control 1.1. Here is the method: All Arabidopsis plant experiments were performed using the Arabidopsis thaliana Columbia-0 background. The Arabidopsis pSPX1::GUS line is described in the Plant Journal 2008, 54: 965-975. For rice, the cultivar Nipponbare was used. For maize, the cultivars DKC 2931 and B104 were used for regular pot experiments and sand-based pot experiments, respectively. For soybean, the cultivar Primus was used. […] The medium was solidified due to the addition of 0.6% Gelrite, unless stated otherwise. […]
Arabidopsis primary root growth experiments were done on MS1/2 on vertical standing plates and roots were measured 11 days after germination. Roots were imaged using a flatbed scanner (EPSON Expression 11000XL) and root length was measured using ImageJ software. Arabidopsis shoot biomass was determined in 11 days after germination and growth on vertical standing plates with modMS. Arabidopsis leaf area was measured 21 days after germination on horizontal plates with modMS medium. Plates were scanned from the top using a flatbed scanner (EPSON Expression 11000XL) and the visible leaf area was measured using ImageJ software. […] Plant height was measured 11 days after germination. […] Plant height was measured 13 days after germination. […]

A further assay has as its system Arabidopsis. Kind of assay: Arabidopsis pot experiment (rosette size, soil phosphate, anthocyanin). In kind it is in vivo, Arabidopsis thaliana. On the procedure: Regular Arabidopsis, soybean and maize pot experiments used an unfertilized potting soil, which was supplemented at the start of the experiment with 50 ml H2O containing 0.25 g/l NH4NO3 and 0.44 g/l (high phosphate) or no (maize and soybean) or 0.11 g/l KH2PO (Arabidopsis) for low phosphate conditions. For the sand-based maize pot experiment, sand was supplemented with 50 ml H2O containing 0.25 g/l NH4NO3 and 0.38 g/l (high phosphate) or 0.02 g/l (low phosphate) KH2PO4. Potassium was balanced via addition of KCl. Compound concentration was 10 μM, calculated based on the total water content after watering, and was added at the start of the experiment (Arabidopsis) or once a week (maize). Indexed chlorophyll contents were received via a SPAD 502 Plus Chlorophyll Meter. All parameters in the sand experiment, except the rate of leaf 4 (measured the first 4 days after emergence), were measured 19 days after sowing. Measurements in the pot experiments with potting soil were done after 4 weeks of growth, except for leaf 5, which was measured at 26 days. One long-term maize pot experiment was conducted with the DKC 2931 (2.5 months) and B104 (3 months) cultivars on the PHENOVISION phenotyping platform as described in Frontiers in Plant Science 2021, 12: 640914, except that an unfertilized potting soil was used and that plants were fertilized with a low-phosphate Hoagland solution. The 2.5× overconcentrated low-phosphate Hoagland solution contained 0.034 g/l KH2PO and 200 mL of this solution was applied twice a week. 1.4 mL of a 10 mM compound solution was added each two weeks to each pot, corresponding to 9.6 mg/g nutrients. 13 plants per condition were used. During the experiment, pictures were taken twice a week for each plants from 6 different angles and the top. […] Extraction and quantification of anthocyanin levels was carried out according to The Plant cell 2013, 25:1641-1656. Anthocyanin levels were quantified by measuring absorption at 530 and 657 nm using a spectrophotometer and normalized to fresh weight input, and expressed relative to the low phosphate control. […]

Consider `CC1CN(CC(=O)c2c(N)n(C)c(=O)n(C)c2=O)c2ccccc2O1` (stereo not shown) [Compound 8, 6-amino-1,3-dimethyl-5-[2-(2-methyl-2,3-dihydro-1,4-benzoxazin-4-yl)acetyl]pyrimidine-2,4-dione], for which the Plant height with Rice is on record as 3.1 cm. The same compound came in with a Relative anthocyanin level in the assay with Arabidopsis (4-week old plant, relative to low phosphate control = 1) of 0.6. Further, the “Phosphate level in soil (relative value)” value in the assay with Arabidopsis (after 4 weeks of growth, relative to low phosphate control = 1) stood at 0.8. Moreover, the Rosette size with Arabidopsis (low phosphate, 10 μM, 4 weeks, control 17) was found to be 25 cm^2.

The values above are taken from patent publication US20240206469A1, “PHOSPHORUS USE EFFICIENCY ENHANCERS AS PLANT GROWTH PROMOTORS” (EUROCHEM ANTWERPEN, priority 2021, published 2024).
